The subject of data set [1] is PBMC. Nature of the data set: Transfection test of PBMC (confocal microscopy). Type of data set: cell-based, human. The conditions noted are these: after 48 hours. Here is the method: After incubations with the mixtures containing fluorescent ODNs, dendriplexes, dendrimers or RPMI, the cells were treated for the subsequent acquisition of images in the conventional confocal or fluorescence microscope. The cells were adhered to glass slides with wells of 30 mm in diameter by Poly-L-lysine, (PLL) (Sigma®). To do this, the slides were preincubated with 30 μl of PLL during 2 hours in an incubator at 37° C. and 5% CO2. After this incubation, the excess PLL was washed with PBS. The cells from each treatment that were going to be adhered in the PLL were washed twice with PBS and were labelled for 1 minute with 0.8% Trypan Blue (Sigma®) to then show the […] cells. They were again washed twice with PBS. At that time the cells were added to the well (100,000/well), being disposed on the PLL during 1 hour in an incubator at 37° C. and 5% CO2. After this hour, the excess volume was washed with PBS and the cells were treated with recently prepared 3% paraformaldehyde (PFA) (within 2 weeks of its use) during 10 minutes. […] Finally, the preparation was mounted using a special medium for fluorescence (DAKO Cytomation Fluorescent Mounting Medium®) with antifading (designed to protect the sample from deterioration caused by lasers). […] After the capture of images, it was analysed using Leica® software. […]

In data set [2] the test system is HIVNL4.3. Put plainly: HIV inhibition test in PBMC. The conditions noted are these: NN 1, 3 and 5 μM before or after infection, 0.4 MOI, 24 h. Type of data set: cell-based. The method, then: The HIVNL4.3 virus strain was then added at a concentration of 1 particle per cell (1 MOI). The MT-2 and the virus were cultured during at least 2 hours at 37° C., stirring the culture every 15-30 minutes. Finally, the cultures (cells-virus) were washed twice to remove the virus which had not integrated in the cell genome. The cells were transferred and cultured in 25 cm^2 bottles in the same culture medium. […] All of them were placed in octuplicate and were maintained at 37° C. in CO2 atmosphere during a week. After this time, the titering was read by display of the cytopathic effect and […] formation. The titering was calculated by applying Spearman-Karber's formula^[30], which serves to quantify the number of particles of virus per ml of medium in a culture in which serial dilutions of the concentrate of virus to titer have been seeded in octuplicate. The PBMC were stimulated during 48 hours with 2 μg/ml of PHA and 100 IU of IL-2, to provoke a polyclonal activation; after 24 hours the cells were washed with PBS. […] The cultures were incubated at 37° C. and they were maintained in a humidified atmosphere with 5% CO2. […] To eliminate the influence of the possible toxicity of the dendrimer on the number of cells and the quantity of viral copies, the number of virus copies was adjusted to the percentage of live cells to be able to make comparisons between different dendrimer concentrations. […]

In data set [3] the test system is U87-MG cells. Nature of the data set: Toxicity in U-87-MG cells: tests with MTT. Here is the method:
A test with U-87-MG cells was performed, wherein the effect of the dendrimers on the viability of said lines was studied at different times. To do this, 15000 (24 hour incubations), 7000 (3 day incubations) or 1500 (7 day incubations) cells per well were plated in 96-well plates. The cells were incubated with different concentrations (1 μM, 5 μM and 10 μM) either NN dendrimer or NN16 dendrimer, during 24 hours, 3 days and 7 days. […] Two different positive controls were also used: cells treated with 7% DMSO and cells treated with 1% Triton X-100.
In the case of Superfect, three doses were tested, the optimum dose recommended by the manufacturer (2.5 μl), a lower dose (1.25 μl) and another higher dose (5 μl). With regard to Polyfect, specifically designed for adherent cells, the three doses tested were: optimum dose (0.6 μl), lower dose (0.3 μl) and higher dose (1.2 μl).
After each corresponding incubation time, a test was performed with MTT analogous to that described in Example 38. At the absorbance value obtained in the untreated cells (C−) it was given the value of 1 and the moiety of the absorbencies produced was used to refer to it.

`C[Si](C)(CCCN)CCC[Si](C)(CCC[Si](C)(C)CCCN)CCC[Si](CCC[Si](C)(CCC[Si](C)(C)CCCN)CCC[Si](C)(C)CCCN)(CCC[Si](C)(CCC[Si](C)(C)CCCN)CCC[Si](C)(C)CCCN)CCC[Si](C)(CCC[Si](C)(C)CCCN)CCC[Si](C)(C)CCCN.Cl.Cl.Cl.Cl.Cl.Cl.Cl.Cl` [ClNH4, 2G-[Si(CH2)3NH3^+Cl^−]8]: the “fluorescence pattern after transfection with PPT dendriplexes” value in data set [1] is “fluorescence pattern in aggregates”.
On to `CN(CCO[Si](C)(C)CCC[Si](C)(CCC[Si](CCC[Si](C)(CCC[Si](C)(C)OCCN(C)CC[N+](C)(C)C)CCC[Si](C)(C)OCCN(C)CC[N+](C)(C)C)(CCC[Si](C)(CCC[Si](C)(C)OCCN(C)CC[N+](C)(C)C)CCC[Si](C)(C)OCCN(C)CC[N+](C)(C)C)CCC[Si](C)(CCC[Si](C)(C)OCCN(C)CC[N+](C)(C)C)CCC[Si](C)(C)OCCN(C)CC[N+](C)(C)C)CCC[Si](C)(C)OCCN(C)CC[N+](C)(C)C)CC[N+](C)(C)C.[I-].[I-].[I-].[I-].[I-].[I-].[I-].[I-]` [NN, 2G-[Si(O(CH2)2N(Me)(CH2)2NMe3^+I^−)]8], for which the “infection of PBMC by HIV (HIV DNA copies/10^6 cells adjusted to % live cells)” value in data set [2] is on record as “good capacity for preventing the infection of lymphocytes by the HIV virus”. In data set [3], the “viability (MTT), untreated cells (C−) = 1” value was 0.6-0.75.

These data come from patent US8603493B2, “Carbosilane dendrimers, preparation method thereof and use of same” (Dendrico, S.L., priority 2005, dated 2013).
